Test results reported in patent publication US20220289732A1, “HETEROCYCLIC WDR5 INHIBITORS AS ANTI-CANCER COMPOUNDS” (NOVARTIS AG, priority 2019, published 2022).
pIC50: −log10 of the molar value.

Legend:
WDR5 = WDR5 (Homo sapiens, UniProt P61964); assay: WDR5 HTRF binding assay; details: read-out: (a) WDR5 HTRF Pep Val v.1[Inhibitor/IC50]Qualified AC50
In short: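 In this HTRF displacement format, biotinylated MLL1 WIN peptide (3762-3773, 20 nM) binds WDR5 (6 nM) in 25 mM Hepes pH 7.5 with 100 mM NaCl, 2 mM DTT and 0.1% BSA for 20 min at rt. Detection used streptavidin-APC/anti-His-Eu for 1 hr. IC50 came from dose-response fits of normalized signal; 15 nM biotin-PEG-His peptide served as counter assay.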

MV4-11 cells = assay: MV4-11 6-day cell growth CTG (CellTiter-Glo) assay; format: cell-based; details: Homo sapiens, MV4-11, 144 h, 6 days, read-out: (c) MLL/WDR5 cell proliferation assay//MLL/WDR5 proliferation MV4:11 Qualified AC50
In short: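 IC50 comes from a dose-response fit of % inhibition relative to DMSO controls, with viable cells measured by CellTiter-Glo luminescence. Compounds were tested over 12 points (1:3, starting at 50 μM final) on MV4-11 cells plated at 300/well and grown 6 days.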

[1] = molecular target: wild type MLL1 four-member complex (MLL1-4C) (Homo sapiens, UniProt P61964); assay: MLL1 LC-MS assay (SAH production); format: biochemical; details: read-out: (b) MLL LCMS Peptide Val.v.1 Qualified AC50
In short: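 SAH formation, measured by LC-MS/MS after a TFA quench containing d4-SAH, was normalised to no-compound and no-enzyme controls and fitted to a dose-response curve for IC50. Reactions ran 120 min at rt (pH 8.0 Tris buffer) with final 30 nM MLL1 four-member complex, 2.5 μM SAM and 10 μM biotinylated H3[1-21] peptide, after a 20-min enzyme/SAM-compound preincubation.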

pIC50 (WDR5) | AC50 [1] [nM] | Compound | AC50 (MV4-11 cells) [nM]
6.00 to 8.00 | 10 to 1000 | CCOc1cc(C(C)N2CCc3c(cc(CCN(C)CCF)cc3-c3cc(C)ncc3C)C2=O)ncc1C#N (stereo not drawn) [Example 248] | 10 to 1000
> 8.00 | 10 to 1000 | CCOc1cc([C@H](C)N2CCc3c(cc(Cn4ccnc4C)cc3-c3cc(C(F)F)cnc3C)C2=O)ncc1C#N [Example 282] | 10 to 1000
> 8.00 | 10 to 1000 | CCOc1cc([C@H](C)N2CCc3c(cc(Cn4ccnc4C)cc3-c3cn(C)c(=O)c(F)c3C)C2=O)ncc1C#N [Example 287] | 10 to 1000
6.00 to 8.00 | 10 to 1000 | CCOc1cc([C@H](C)N2CCc3c(cc(Cn4ccnc4C)cc3-c3nn(C)cc3C)C2=O)ncc1C#N [Example 277] | 10 to 1000
6.00 to 8.00 | 10 to 1000 | CCOc1cc([C@H](C)N2CCc3c(cc(CCN4CC[C@H]4CO)cc3-c3ccc(F)nc3C)C2=O)ncc1C#N [Example 243] | 10 to 1000
> 8.00 | 10 to 1000 | CCOc1cc([C@H](C)N2CCc3c(cc(CCN(C)CCOC)cc3-c3cc(C)ncc3C)C2=O)ncc1C#N [Example 232] | 10 to 1000
6.00 to 8.00 | 10 to 1000 | CCOc1cc(C(C)N2CCc3c(cc(CCN(C)CCF)cc3-c3cn(C)nc3C)C2=O)ncc1C#N (stereo not drawn) [Example 241] | 10 to 1000

Further lines, the compound ahead of its results:

Compound | pIC50 (WDR5) | AC50 [1] [nM] | AC50 (MV4-11 cells) [nM]
CCOc1cc([C@H](C)N2CCc3c(cc(CCN(C)CC)cc3-c3cc(C)cnc3C(F)F)C2=O)ncc1C#N [Example 128, (S)-6-(1-(5-(2-(difluoromethyl)-5-methylpyridin-3-yl)-7-(2-(ethyl(methyl)amino)ethyl)-1-oxo-3,4-dihydroisoquinolin-2(1H)-yl)ethyl)-4-ethoxynicotinonitrile] | > 8.00 | 10 to 1000 | 10 to 1000
CNc1nccn1Cc1cc(-c2cc(CO)cnc2Cl)c2ccn(Cc3cc4c(C)cccc4[nH]3)c(=O)c2c1 [Example 107, 5-(2-chloro-5-(hydroxymethyl)pyridin-3-yl)-2-((4-methyl-1H-indol-2-yl)methyl)-7-((2-(methylamino)-1H-imidazol-1-yl)methyl)isoquinolin-1(2H)-one] | 6.00 to 8.00 | 10 to 1000 | 10 to 1000
CCOc1cc(C(C)N2CCc3c(cc(CCN(C)CC)cc3-c3cn(C)nc3C(F)(F)F)C2=O)ncc1C#N (stereo not drawn) [Example 148, 4-ethoxy-6-(1-(7-(2-(ethyl(methyl)amino)ethyl)-5-(1-methyl-3-(trifluoromethyl)-1H-pyrazol-4-yl)-1-oxo-3,4-dihydroisoquinolin-2(1H)-yl)ethyl)nicotinonitrile] | 6.00 to 8.00 | 10 to 1000 | 10 to 1000
CCOc1cc(CN2CCc3c(CN(C)C4CC4)cc(Cn4ccnc4NC)cc3C2=O)cnc1C#N [Example 26, 5-((5-((cyclopropyl(methyl)amino)methyl)-7-((2-(methylamino)-1H-imidazol-1-yl)methyl)-1-oxo-3,4-dihydroisoquinolin-2(1H)-yl)methyl)-3-ethoxypicolinonitrile] | 6.00 to 8.00 | 10 to 1000 | 10 to 1000
CNc1nccn1Cc1cc(-c2cc(C(C)O)cnc2Cl)c2ccn(Cc3ccc(F)c(OC)c3)c(=O)c2c1 (stereo not drawn) [Example 106, 5-(2-chloro-5-(1-hydroxyethyl)pyridin-3-yl)-2-(4-fluoro-3-methoxybenzyl)-7-((2-(methylamino)-1H-imidazol-1-yl)methyl)isoquinolin-1(2H)-one] | 6.00 to 8.00 | 10 to 1000 | 10 to 1000
CCOc1cc([C@H](C)N2CCc3c(cc(CCN(C)CC)cc3-c3cn(C)c(=O)cc3C(F)F)C2=O)ncc1C#N [Example 149, (S)-6-(1-(5-(4-(difluoromethyl)-1-methyl-6-oxo-1,6-dihydropyridin-3-yl)-7-(2-(ethyl(methyl)amino)ethyl)-1-oxo-3,4-dihydroisoquinolin-2(1H)-yl)ethyl)-4-ethoxynicotinonitrile] | 6.00 to 8.00 | 10 to 1000 | 10 to 1000
CNc1nccn1Cc1cc2c(c(-c3ccnn3C)c1)CCN(Cc1ccc(F)c(OC)c1)C2=O [Example 72, 2-(4-fluoro-3-methoxybenzyl)-5-(1-methyl-1H-pyrazol-5-yl)-7-((2-(methylamino)-1H-imidazol-1-yl)methyl)-3,4-dihydroisoquinolin-1(2H)-one] | 6.00 to 8.00 | 10 to 1000 | 10 to 1000
CNc1nccn1Cc1cc2c(c(-c3cc(CO)cnc3Cl)c1)CCN(Cc1cccc(OC)c1)C2=O [Example 52, 5-(2-chloro-5-(hydroxymethyl)pyridin-3-yl)-2-(3-methoxybenzyl)-7-((2-(methylamino)-1H-imidazol-1-yl)methyl)-3,4-dihydroisoquinolin-1(2H)-one] | > 8.00 | 10 to 1000 | 10 to 1000
CCOc1cc(C(C)N2CCc3c(cc(CCN(C)CC)cc3-c3cc(O)cnc3C)C2=O)ncc1C#N (stereo not drawn) [Example 150, 4-ethoxy-6-(1-(7-(2-(ethyl(methyl)amino)ethyl)-5-(5-hydroxy-2-methylpyridin-3-yl)-1-oxo-3,4-dihydroisoquinolin-2(1H)-yl)ethyl)nicotinonitrile] | 6.00 to 8.00 | 10 to 1000 | 10 to 1000
CCOc1cc([C@H](C)N2CCc3c(cc(CCN(C)CC)cc3-c3cc(CO)cnc3Cl)C2=O)ncc1C#N [Example 124, (S)-6-(1-(5-(2-chloro-5-(hydroxymethyl)pyridin-3-yl)-7-(2-(ethyl(methyl)amino)ethyl)-1-oxo-3,4-dihydroisoquinolin-2(1H)-yl)ethyl)-4-ethoxynicotinonitrile] | > 8.00 | 10 to 1000 | 10 to 1000
CCOc1cc([C@H](C)N2CCc3c(cc(CCN(C)CC)cc3-c3cn(C)nc3C)C2=O)ncc1F [Example 145, (S)-5-(1,3-dimethyl-1H-pyrazol-4-yl)-2-(1-(4-ethoxy-5-fluoropyridin-2-yl)ethyl)-7-(2-(ethyl(methyl)amino)ethyl)-3,4-dihydroisoquinolin-1(2H)-one] | 6.00 to 8.00 | 10 to 1000 | 10 to 1000
CCOc1cc([C@H](C)N2CCc3c(cc(CCN4C[C@@H](O)C[C@@H]4C)cc3-c3ccc(F)nc3C)C2=O)ncc1C#N [Example 227] | 6.00 to 8.00 | 10 to 1000 | 1000 to 25000
CNc1nccn1Cc1cc2c(c(-c3cc(CO)cnc3Cl)c1)CCN([C@H](C)c1ccc(F)c(OC)c1)C2=O [Example 57, (R)-5-(2-chloro-5-(hydroxymethyl)pyridin-3-yl)-2-(1-(4-fluoro-3-methoxyphenyl)ethyl)-7-((2-(methylamino)-1H-imidazol-1-yl)methyl)-3,4-dihydroisoquinolin-1(2H)-one] | 6.00 to 8.00 | 10 to 1000 | 10 to 1000
CNc1nccn1Cc1cc(-c2cc(CO)cnc2Cl)c2ccn(Cc3ccc(OC)cc3)c(=O)c2c1 [Example 105, 5-(2-chloro-5-(hydroxymethyl)pyridin-3-yl)-2-(4-methoxybenzyl)-7-((2-(methylamino)-1H-imidazol-1-yl)methyl)isoquinolin-1(2H)-one] | 6.00 to 8.00 | 10 to 1000 | 10 to 1000
CNc1nccn1Cc1cc2c(c(-c3cc([C@@H](C)O)cnc3Cl)c1)CCN(Cc1ccc(F)c(OC)c1)C2=O (single isomer, unassigned) [Example 75] | > 8.00 | 10 to 1000 | 10 to 1000
